Reference: paper PMC12058161, “The plant matrix of Artemisia annua L. for the treatment of malaria: Pharmacodynamic and pharmacokinetic studies” (PLOS One, 2025)
Several values for one entry are separate records, joined by “and”; a condition that tells them apart may be missing. Identical values can stand only once.

Experiments:
CYP3A4 = settings: read-out: IC50 of CYP3A4 inhibition; cited from earlier work
P-glycoprotein (P-gp) = biological target: T1, P-glycoprotein (P-gp) (Homo sapiens, UniProt P08183); experiment: Rhodamine 123 (P-gp substrate) transport across drug-treated Caco-2 cell monolayers; assay type: cell-based; settings: co-incubated with R123, 10 μM, Caco-2 monolayer, Fig 6
T1 construct: The transport of R123 in normal Caco-2 cell monolayers or drug-treated Caco-2 cell monolayers was further studied; host or cells: Caco-2
T1 sequence (P08183 whole entry): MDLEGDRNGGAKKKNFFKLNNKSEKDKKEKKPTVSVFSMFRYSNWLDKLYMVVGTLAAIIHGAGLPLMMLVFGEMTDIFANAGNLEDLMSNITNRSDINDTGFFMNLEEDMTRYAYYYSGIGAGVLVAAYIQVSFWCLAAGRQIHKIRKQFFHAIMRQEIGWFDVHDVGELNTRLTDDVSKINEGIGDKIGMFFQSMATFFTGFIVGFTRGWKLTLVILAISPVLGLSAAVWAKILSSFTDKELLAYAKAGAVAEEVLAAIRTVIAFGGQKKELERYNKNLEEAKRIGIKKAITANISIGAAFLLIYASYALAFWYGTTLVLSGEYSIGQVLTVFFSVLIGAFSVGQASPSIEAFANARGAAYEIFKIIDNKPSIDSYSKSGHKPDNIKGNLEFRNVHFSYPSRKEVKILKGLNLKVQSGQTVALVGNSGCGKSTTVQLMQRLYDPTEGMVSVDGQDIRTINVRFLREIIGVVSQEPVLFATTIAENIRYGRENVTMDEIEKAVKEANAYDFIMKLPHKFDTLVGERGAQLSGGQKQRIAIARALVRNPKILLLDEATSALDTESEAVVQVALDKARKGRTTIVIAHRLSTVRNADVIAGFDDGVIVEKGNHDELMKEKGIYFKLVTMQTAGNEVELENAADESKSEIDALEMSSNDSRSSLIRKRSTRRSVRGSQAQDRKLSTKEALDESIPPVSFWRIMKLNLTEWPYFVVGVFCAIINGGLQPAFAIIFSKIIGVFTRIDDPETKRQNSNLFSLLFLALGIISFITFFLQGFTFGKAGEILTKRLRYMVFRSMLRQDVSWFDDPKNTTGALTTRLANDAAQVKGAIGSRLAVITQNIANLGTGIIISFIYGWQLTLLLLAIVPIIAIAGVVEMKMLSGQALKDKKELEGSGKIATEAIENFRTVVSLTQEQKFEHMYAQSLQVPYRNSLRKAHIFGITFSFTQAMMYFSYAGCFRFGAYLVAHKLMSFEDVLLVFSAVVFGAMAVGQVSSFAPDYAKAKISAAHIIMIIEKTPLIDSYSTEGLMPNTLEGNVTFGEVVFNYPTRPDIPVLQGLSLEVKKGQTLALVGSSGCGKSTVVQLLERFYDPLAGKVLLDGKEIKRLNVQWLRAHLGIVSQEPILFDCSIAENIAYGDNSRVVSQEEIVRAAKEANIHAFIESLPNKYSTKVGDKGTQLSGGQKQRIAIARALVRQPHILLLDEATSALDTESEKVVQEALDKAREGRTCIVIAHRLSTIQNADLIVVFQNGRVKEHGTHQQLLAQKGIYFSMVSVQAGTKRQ
Description: The human epithelial cell line Caco-2 serves as a widely recognized model for the intestinal epithelial barrier, frequently utilized in the assessment of drug absorption and transport mechanisms. In this study, we evaluated drug absorption and distribution in vitro with the help of the Caco-2 cell model. Caco-2 cells were purchased from the Chinese Academy of Medical Sciences (Beijing, China, Resource No. 3111C0001CCC000100). The cells were resuscitated and inserted into culture flasks. Caco-2 cells were passaged with DMEM high glucose medium containing 10% (V/V) FBS, 1% (V/V) non-essential amino acid solution and 100 U/mL penicillin-streptomycin double antibiotic solution, and cultured at 37°C in a 5% CO2 incubator. […] The integrity of the cell monolayer was checked by measuring the transmembrane electrical resistance (TEER) of the monolayer cells with a Millicell-ERS electrode (Millipore Corp., Billerica, MA, USA). Caco-2 cells were used for transport experiments 17–21 days after inoculation. Besides, only monolayers with TEER values above 400 Ω/cm^2 were used in the study.
The transport of R123 in normal Caco-2 cell monolayers or drug-treated Caco-2 cell monolayers was further studied. […] The transport buffer containing 5 μM of R123 was added on either the AP or the BL side of the inserts, as described above. […] The concentrations of R123 were immediately analyzed by SpectraMax iD3. The excitation wavelength was set at 485 nm, and the emission wavelength at 535 nm. Papp values across the cell monolayers were calculated according to the equation: Papp = dQ/dt × 1/(A × C0), where dQ/dt represents the rate of drug transport. […] The efflux ratio was calculated using the Papp (BL-AP) to Papp (AP-BL) ratio.

[1] = Stability of the five compounds in SD rat plasma (QC samples, UHPLC-ESI-MS/MS); assay type: in vitro ADME; settings: for stability, Accuracy (measured versus nominal concentration) / stability, mean ± SD (measured concentration): SD rat plasma, n=5
Protocol: The method was validated according to the US Food and Drug Administration (FDA) Bioanalytical Method Validation Guidance as follows: [1] specificity was assessed by analyzing blank plasma, blank plasma spiked with standard solutions and rat plasma samples after oral administration. Each calibration curve was plotted using the concentration of the standard solution as the horizontal coordinate and the ratio of analyte to internal standard peak area as the vertical coordinate. The lower limit of quantification (LLOQ) refers to the lowest concentration, which is typically 10 times the signal-to-noise ratio. It has an acceptable accuracy of ± 20% and a precision of less than 20% [3]. Quality Control (QC) samples (low, medium and high concentrations) were prepared for each analyte. Five samples were analyzed at each concentration level and three consecutive batches were determined to calculate the accuracy and precision of the method. Extraction recovery was assessed by the ratio of the average peak area of routinely prepared QC samples (low, medium, and high concentrations) to the post-extraction plasma sample. Likewise, matrix effect was assessed by the ratio of peak areas between post-extraction samples spiked with analytes and mobile phases spiked with the same concentration of analytes.

[2] = male, Sprague Dawley, rat, in vivo
in vivo = settings: male, Sprague Dawley, rat, po, 352 mg/kg
Caco-2 cells = experiment: Cytotoxicity in Caco-2 cells, CCK-8 assay; assay type: cell-based, human; settings: for Cell survival rate%: mean; for cck-8 mean (survival fraction): mean of 6
Protocol: Caco-2 cells were cultured in 96-well plates for 48 h at a seeding density of 5.0 × 10^3 cells/well before the addition of drugs. […] The final concentration of DMSO was 0.05% (v/v). Experiments were initiated by replacing the culture medium in each well with 100 μL of sample solutions at 37°C in the CO2 incubator. After 48 h of incubation, the medium was removed and 10 μL of CCK-8 reagent in the serum-free medium was added to each well. The plates were then incubated at 37°C for another 2 h. At the end of the incubation period, the plates were quantified by reading the absorbance at 450 nm on a micro-plate multi-detection instrument, SpectraMax iD3 with SoftMax® Pro (Molecular Devices Corporation Sunnyvale, CA, USA). The percentage of cell viability was calculated based on the absorbance measured relative to the absorbance of cells exposed to the negative control.

[3] = nominal 160 ng/mL, 3 freeze-thaw cycles
[4] = nominal 160 ng/mL, 7 days at -80°C
[5] = nominal 160 ng/mL, Room temperature 24h
[6] = nominal 1000 ng/mL, 3 freeze-thaw cycles
[7] = nominal 1000 ng/mL, 7 days at -80°C
[8] = nominal 1000 ng/mL, Room temperature 24h
[9] = nominal 5000 ng/mL, 3 freeze-thaw cycles
[10] = nominal 5000 ng/mL, 7 days at -80°C
[11] = nominal 5000 ng/mL, Room temperature 24h
[12] = Caco-2, concentration 10 μmol/L
[13] = Caco-2, concentration 20 μmol/L
[14] = Caco-2, concentration 40 μmol/L
[15] = Caco-2, concentration 80 μmol/L

C=C1C(=O)O[C@@]23[C@H]1CC[C@@H](C)[C@@H]2CC[C@@]1(C)O[C@@H]31 [arteannuin B]
IC50 (CYP3A4): 1200 nM

CC1=C[C@H]2[C@@H](CC1)[C@H](C)CC[C@H]2[C@@H](C)C(=O)O [DHAA, Dihydroartemisinic acid]
reduction of R123 transport from the BL side to the AP side (P-glycoprotein (P-gp)): 45.21% | Stability, measured concentration, mean ± SD ([1]; QC sample 160 ng/mL, 3 freeze-thaw cycles): 161 ± 10.8 ng/mL and 160.872 ng/mL | Stability, measured concentration, mean ± SD ([1]; QC sample 160 ng/mL, 7 days at -80°C): 149 ± 5.80 ng/mL and 149.16 ng/mL | Stability, measured concentration, mean ± SD ([1]; QC sample 160 ng/mL, Room temperature 24h): 151 ± 5.81 ng/mL and 151.046 ng/mL | Stability, measured concentration, mean ± SD ([1]; QC sample 1000 ng/mL, 3 freeze-thaw cycles): 914 ± 35.7 ng/mL and 914.334 ng/mL | Stability, measured concentration, mean ± SD ([1]; QC sample 1000 ng/mL, 7 days at -80°C): 1064 ± 21.4 ng/mL and 1063.64 ng/mL | Stability, measured concentration, mean ± SD ([1]; QC sample 1000 ng/mL, Room temperature 24h): 959.663 ng/mL and 960 ± 45.4 ng/mL | Stability, measured concentration, mean ± SD ([1]; QC sample 5000 ng/mL, 3 freeze-thaw cycles): 4813 ± 108 ng/mL and 4813.44 ng/mL | Stability, measured concentration, mean ± SD ([1]; QC sample 5000 ng/mL, 7 days at -80°C): 4814 ± 118 ng/mL and 4813.94 ng/mL | Stability, measured concentration, mean ± SD ([1]; QC sample 5000 ng/mL, Room temperature 24h): 5079.03 ng/mL and 5079 ± 336 ng/mL | stability, Accuracy (measured versus nominal concentration) [1, 3]: 100.54% | stability, mean ± SD (measured concentration) [1, 3]: 161 ± 10.8 ng/mL | stability, Accuracy (measured versus nominal concentration) [1, 4]: 93.23% | stability, mean ± SD (measured concentration) [1, 4]: 149 ± 5.80 ng/mL | stability, Accuracy (measured versus nominal concentration) [1, 5]: 94.40% | stability, mean ± SD (measured concentration) [1, 5]: 151 ± 5.81 ng/mL | stability, Accuracy (measured versus nominal concentration) [1, 6]: 91.43% | stability, mean ± SD (measured concentration) [1, 6]: 914 ± 35.7 ng/mL | stability, Accuracy (measured versus nominal concentration) [1, 7]: 106.36% | stability, mean ± SD (measured concentration) [1, 7]: 1064 ± 21.4 ng/mL | stability, Accuracy (measured versus nominal concentration) [1, 8]: 95.97% | stability, mean ± SD (measured concentration) [1, 8]: 960 ± 45.4 ng/mL | stability, Accuracy (measured versus nominal concentration) [1, 9]: 96.27% | stability, mean ± SD (measured concentration) [1, 9]: 4813 ± 108 ng/mL | stability, Accuracy (measured versus nominal concentration) [1, 10]: 96.28% | stability, mean ± SD (measured concentration) [1, 10]: 4814 ± 118 ng/mL | stability, Accuracy (measured versus nominal concentration) [1, 11]: 101.58% | stability, mean ± SD (measured concentration) [1, 11]: 5079 ± 336 ng/mL | CLz [2]: 24 mL/day/kg | CL ([2]; po, 352 mg/kg): 0.001 ± 0.001 L/h | Vz ([2]; po, 352 mg/kg): 0.005 ± 0.001 L | AUC(0-inf) (in vivo): 29700 ± 6700 ng·h/mL | AUC(0-t) (in vivo): 28700 ± 6660 ng·h/mL | Cmax (in vivo; Cmax): 10400 ± 2440 ng/mL | MRT inf (in vivo; MRT(0-∞)): 6.08 ± 1.27 h | half-life (in vivo; t1/2): 278 ± 71 min | half-life (in vivo; t1/2z): 238 min | Cell survival rate%, single replicate (Caco-2 cells; Caco-2, 5μmol/L): 84.02% and 84.22% and 87.64% and 85.87% and 89.84% and 87.8% | Cell survival rate%, single replicate (Caco-2 cells; Caco-2, 10μmol/L): 84.68% and 88.84% and 86.58% and 89.08% and 86.49% and 80.21% | Cell survival rate%, single replicate (Caco-2 cells; Caco-2, 20μmol/L): 84.63% and 81.53% and 85.05% and 89.44% and 83.52% and 78.29% | Cell survival rate%, single replicate (Caco-2 cells; Caco-2, 40μmol/L): 84.99% and 84.53% and 82.56% and 83.98% and 80.6% and 81.3% | Cell survival rate%, single replicate (Caco-2 cells; Caco-2, 80μmol/L): 80.04% and 80.37% and 80.83% and 80.86% and 80.51% and 80.11% | cck-8 cell survival as fraction, single replicate (Caco-2 cells; Caco-2, concentration 5 μmol/L): 0.8402 and 0.8422 and 0.8764 and 0.8587 and 0.8984 and 0.878 | Cell survival rate% (Caco-2 cells; Caco-2, concentration 5 μmol/L): 86.56% | cck-8 mean (survival fraction) (Caco-2 cells; Caco-2, concentration 5 μmol/L): 0.87 | cck-8 cell survival as fraction, single replicate (Caco-2 cells; [12]): 0.8468 and 0.8884 and 0.8658 and 0.8908 and 0.8649 and 0.8021 | Cell survival rate% (Caco-2 cells; [12]): 85.98% | cck-8 mean (survival fraction) (Caco-2 cells; [12]): 0.86 | cck-8 cell survival as fraction, single replicate (Caco-2 cells; [13]): 0.8463 and 0.8153 and 0.8505 and 0.8944 and 0.8352 and 0.7829 | Cell survival rate% (Caco-2 cells; [13]): 83.74% | cck-8 mean (survival fraction) (Caco-2 cells; [13]): 0.84 | cck-8 cell survival as fraction, single replicate (Caco-2 cells; [14]): 0.8499 and 0.8453 and 0.8256 and 0.8398 and 0.806 and 0.813 | Cell survival rate% (Caco-2 cells; [14]): 82.99% | cck-8 mean (survival fraction) (Caco-2 cells; [14]): 0.83 | cck-8 cell survival as fraction, single replicate (Caco-2 cells; [15]): 0.8004 and 0.8037 and 0.8083 and 0.8086 and 0.8051 and 0.8011 | Cell survival rate% (Caco-2 cells; [15]): 80.45% | cck-8 mean (survival fraction) (Caco-2 cells; [15]): 0.80
